Results published in patent US11129807B2, “Methods of treating schizophrenia” (Sunovion Pharmaceuticals Inc., priority 2017, dated 2021).

Columns and labels:
[1] = system: Pre-pulse Inhibition (PPI) in Mice; assay: Pre-pulse inhibition (PPI) of startle in mice;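 further: plus grades count prepulse intensities with significant PPI increase at P below 0.05 and minus means no change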; format: in vivo; conditions: 30 min prior to PPI test, male C57Bl/6J mice, vs. vehicle
Protocol: (§1) Anti-psychotic like activity of the compounds was evaluated in mice using the PCP hyperactivity and Pre-Pulse Inhibition (PPI) models of schizophrenia.
(§2) Methods: Animals: Male C57Bl/6J mice from Jackson Laboratories (Bar Harbor, Me.) were used. Upon receipt, mice were assigned unique identification numbers (tail marked) and were group housed with 4 mice per cage in OptiMICE ventilated cages. All animals remained housed in groups of four during the remainder of the study. All mice were acclimated to the colony room for at least two weeks prior to testing. During the period of acclimation, mice were examined on a regular basis, handled, and weighed to assure adequate health and suitability. Animals were maintained on a 12/12 light/dark cycle. The room temperature was maintained between 20 and 23° C. with a relative humidity maintained between 30% and 70%. Chow and water were provided ad libitum for the duration of the study. In each test, animals were randomly assigned across treatment groups.
Prepulse Inhibition of Startle: The acoustic startle is an unconditioned reflex response to an external auditory stimulus. Prepulse inhibition of startle (PPI) refers to the reduction in the startle response caused by the presentation of a low-intensity auditory stimulus prior to the startle stimulus. The PPI paradigm is used for the study of schizophrenia and antipsychotic action due to the similarities between the results from human and rodent studies. […] Various psychotomimetic drugs such as PCP can disrupt PPI. In mice, antipsychotic drugs such as clozapine can reverse the disruption of PPI induced by PCP.
Mice were placed in the PPI chambers (Med Associates) for a 5 min session of white noise (70 dB) habituation. After the habituation period the test session was initiated. The session started with a habituation block of 6 presentations of the startle stimulus alone, followed by 10 PPI blocks, each of which consisted of 6 different types of trials. Trial types were: ‘null’ (no stimuli), ‘startle’ (120 dB), ‘startle plus prepulse’ (4, 8 and 12 dB over background noise, i.e., 74, 78 or 82 dB) and ‘prepulse’ (82 dB). Trial types were presented in a random order within each block. Each trial started with a 50 ms stimulus-free period during which baseline movements were recorded. This was followed by a subsequent 20 ms period during which the prepulse stimulus was presented and responses to the prepulse measured. After a further 100 ms period, the startle stimulus was presented for 40 ms and responses recorded for 100 ms from startle onset. Responses were sampled every ms. The inter-trial interval was variable with an average of 15 s (range from 10 to 20 s). In ‘startle’ trials the basic auditory startle response was measured. The basic startle response was calculated as the mean startle response of all ‘startle’ trials (i.e., excluding the first habituation block). In ‘startle plus prepulse’ trials the degree of inhibition of the normal startle was calculated and expressed as a percentage of the basic startle response.
Mice were treated with vehicle, haloperidol (1 mg/kg; i.p) or test compound 30 min prior to PPI test. The PPI enclosures were cleaned following each test.

[2] = system: PCP-Induced Hyperactivity Responses in Mice; assay: PCP-induced hyperactivity (open field) in mice;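 further: plus means significant inhibition of PCP hyperactivity at P below 0.05 and minus means none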; format: in vivo; conditions: male C57Bl/6J mice, vs. vehicle + PCP
Protocol: as §1, §2
The analysis was configured to divide the open field into a center and periphery zone. Distance traveled was measured from horizontal beam breaks as the mouse moved whereas rearing activity was measured from vertical beam breaks.
Mice were injected with vehicle, test compound, or clozapine (1 mg/kg; i.p) and placed in the OF chambers for 30 min measurement of baseline activity. Mice were then injected with either water or PCP (5 mg/kg; i.p) and placed back in the OF chambers for a 60-minute session. At the end of each OF test session the OF chambers were thoroughly cleaned.

[3] = system: patients with an acute exacerbation of schizophrenia (PANSS symptom factors); assay: Pooled 6-week placebo-controlled lurasidone studies in acute schizophrenia (PANSS Analysis Study): effect sizes on Marder and transformed PANSS factors; format: in vivo, human; conditions: FIG. 3B, given as r=
Protocol: Profile of active drug effects on schizophrenia symptom domains. In the left panel of FIG. 3B, shown are lurasidone vs placebo effect sizes (with 95% CI) for change from baseline at week 6 endpoint, based on the Marder PANSS factors. In the right panel of FIG. 3B, the same lurasidone vs placebo effect sizes at endpoint are shown based on the transformed PANSS factors. Drug effects were constructed using a pool of all lurasidone doses (40, 80, 120, or 160 mg/day, total N=993) and excluded active comparators (olanzapine, quetiapine-XR). To examine placebo effects on PANSS factors, placebo treated patients (N=484) were pooled across all studies. Transformed PANSS factors were calculated using the coefficients of the score matrix (see FIG. 4 and Table 4A).
The analysis sample consisted of PANSS data derived from 5 similarly-designed, randomized, double-blind, placebo-controlled, 6-week treatment studies of lurasidone or active comparator for the treatment of patients with an acute exacerbation of schizophrenia. Patients (N=1,710) were included in this analysis if they had received at least one dose of study drug, and had at least one post-baseline PANSS assessment. The analysis pooled all lurasidone doses (40, 80, 120, or 160 mg/d, total N=993), and excluded active comparators (olanzapine, quetiapine-XR). To examine placebo effects on PANSS factors, placebo treated patients (N=484) were pooled across all studies. Herein also referred to as the “PANSS Analysis Study.”
The Uncorrelated PANSS Score Matrix (UPSM) of FIG. 4 and Table 4A was derived using PROC FACTOR procedure of SAS 9.4 with maximum likelihood method (maximum likelihood factor analysis), rotated using the varimax algorithm and compensated for communality greater than 1 using Heywood criteria without a limit on the number of factors produced. A last observation carried forward (LOCF) data imputation method was applied for missing post-baseline PANSS assessments.
The ratings of 30 items in the PANSS data of the PANSS Analysis Study were transformed to transformed PANSS factor scores using a score matrix identified by the maximum likelihood method factor analysis conducted on all change from baseline PANSS data from the 5 short-term clinical trials in the pooled analysis sample. The score matrix, also referred to here as the UPSM, consisted of coefficients multiplying the numerical ratings of each PANSS item differentially for each of the factor scores.
The change-from-baseline PANSS data for all patients and all observations N was a matrix of dimensions (N observations×30 items). To increase precision, the score matrix coefficients were determined using all change-from-baseline observations at Weeks 1-6. The resultant score matrix (30 items×7 factors), or UPSM, was used to transform individual PANSS item change scores (without standardization) to reduce the dimensionality into 7-factor values for each PANSS assessment. FIG. 4 and Table 4A summarize the score matrix (UPSM) weights for individual PANSS items used to generate the transformed PANSS factors.
The weighted score matrix transformation was performed on each of the PANSS item baseline-to-endpoint change scores. This transformation yielded 5 transformed PANSS factors that corresponded to the Marder PANSS factors, with two of the factors (negative symptoms and depression/anxiety) further subdivided into sub-factors (corresponding to the symptom sub-domains of: apathy/avolition and deficit of expression; and depression and anxiety, respectively).
The Validation Study data transformed PANSS factors of Example 1 were used to compare treatment effects of an antipsychotic (lurasidone) on established schizophrenia symptom domains with those estimated using Marder PANSS factors.

[4] = 0.3 mg/kg Compound + PCP (5 mg/kg; i.p)
[5] = 1 mg/kg Compound + PCP (5 mg/kg; i.p)
[6] = 3 mg/kg Compound + PCP (5 mg/kg; i.p)
[7] = 10 mg/kg Compound + PCP (5 mg/kg; i.p)
[8] = 30 mg/kg Compound + PCP (5 mg/kg; i.p)

| SMILES | Effect on Pre-pulse Inhibition (PPI) ([1]; 3 mg/kg) | Effect on Pre-pulse Inhibition (PPI) ([1]; 10 mg/kg) | Effect on Pre-pulse Inhibition (PPI) ([1]; 30 mg/kg) | Total Distance Traveled (cm) [2, 4] | Total Distance Traveled (cm) [2, 5] | Total Distance Traveled (cm) [2, 6] | Total Distance Traveled (cm) [2, 7] | Total Distance Traveled (cm) [2, 8] | also measured |
| --- | --- | --- | --- | --- | --- | --- | --- | --- | --- |
| CNC[C@H]1OCCc2c(C)csc21 [Compound 172] | − | − | − | − | + | + | − | − | Effect on Pre-pulse Inhibition (PPI) ([1]; 100 mg/kg): − |
| c1cc2c(s1)[C@@H]([C@H]1CCCN1)OCC2 [Compound 205] | − | − | +++ | + | + | + | + | + |  |
| C[C@H](N)[C@@H]1OCCc2ccsc21 [Compound 213] | − | +++ | +++ | + | + | + | + | + |  |
| CCNC[C@H]1OCCc2ccsc21 [Compound 242] | − | − | − | − | + | + | + | + |  |
| CCNC[C@@H]1OCCc2sccc21 [Compound 310] | − | − | +++ | + | − | − | + | + |  |
| CCNC[C@H]1OCCc2sccc21 [Compound 311] | − | − | +++ | − | + | + | + | + |  |
| O=C1[C@@H]2[C@H]3CC[C@H](C3)[C@@H]2C(=O)N1C[C@@H]1CCCC[C@H]1CN1CCN(c2nsc3ccccc23)CC1 [lurasidone] |  |  |  |  |  |  |  |  | effect size, Marder negative symptom factor ([3]; change score): 0.35; effect size, transformed PANSS negative symptoms deficit of expression ([3]; change score): 0.04; effect size, transformed PANSS negative symptoms of apathy/avolition ([3]; change score): 0.22; effect size, Marder PANSS disorganized factor change score [3]: 0.48; effect size, Marder PANSS factor change score compared with transformed anxiety factor [3]: 0.38; effect size, Marder PANSS factor change score compared with transformed depression factor [3]: 0.38; effect size, Marder PANSS hostility factor change score [3]: 0.43; effect size, Marder PANSS positive factor change score [3]: 0.59; effect size, transformed PANSS anxiety factor change score [3]: 0.24; effect size, transformed PANSS depression factor change score [3]: 0.16; effect size, transformed PANSS disorganized factor change score [3]: 0.23; effect size, transformed PANSS hostility factor change score [3]: 0.31; effect size, transformed PANSS positive factor change score [3]: 0.45 |
